Results on twelve compounds are retold here after patent US12539292B2, “BRM targeting compounds and associated methods of use” (Arvinas Operations, Inc., priority 2018, dated 2026).

For orientation: Dmax means the largest share of the target that was removed. In general, DC50 refers to the concentration at which degradation of the target reaches its halfway point.

The target in this test is T1, BRM (Homo sapiens, UniProt P51531).
T1 construct: In-Cell Western Screen of BRM Degradation in SW1573 Cells; endogenous in cells; host or cells: SW1573
Put plainly: In-cell Western screen of BRM degradation in SW1573 cells (Dmax and DC50). Format: cell-based. The procedure, abridged:
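Near-infrared imaging on a LI-COR Odyssey (800 and 680 nm channels) quantifies BRM remaining in fixed SW1573 cells. Cells are dosed for 18-20 h at 0.1% final DMSO, and degradation is expressed as Dmax and DC50.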

Setting [1] is: SW1573, % degraded, when tested at the top concentration of between 0.3 and 10 μM, read-out: BRM Dmax (%).
The mark [2] stands for this setting: target protein degradation, read-out: BRM DC50.
Setting [3] is: BRM degradation, SW1573 cells, read-out: DC50.
The mark [4] stands for this setting: BRM degradation, SW1573 cells, when tested at the top concentration of between 0.3 and 10 μM, read-out: Dmax (%) (% degraded).
Where [5] appears, read: degradation of BRM, read-out: BRM DC50.
The mark [6] stands for this setting: BRM degradation, SW1573 cells, Table 2D, read-out: *DC50.

Structures are written as SMILES. Where two headings read alike, the source gives them in different places. Bounds are passed on as bounds.

T1 sequence (P51531 whole entry): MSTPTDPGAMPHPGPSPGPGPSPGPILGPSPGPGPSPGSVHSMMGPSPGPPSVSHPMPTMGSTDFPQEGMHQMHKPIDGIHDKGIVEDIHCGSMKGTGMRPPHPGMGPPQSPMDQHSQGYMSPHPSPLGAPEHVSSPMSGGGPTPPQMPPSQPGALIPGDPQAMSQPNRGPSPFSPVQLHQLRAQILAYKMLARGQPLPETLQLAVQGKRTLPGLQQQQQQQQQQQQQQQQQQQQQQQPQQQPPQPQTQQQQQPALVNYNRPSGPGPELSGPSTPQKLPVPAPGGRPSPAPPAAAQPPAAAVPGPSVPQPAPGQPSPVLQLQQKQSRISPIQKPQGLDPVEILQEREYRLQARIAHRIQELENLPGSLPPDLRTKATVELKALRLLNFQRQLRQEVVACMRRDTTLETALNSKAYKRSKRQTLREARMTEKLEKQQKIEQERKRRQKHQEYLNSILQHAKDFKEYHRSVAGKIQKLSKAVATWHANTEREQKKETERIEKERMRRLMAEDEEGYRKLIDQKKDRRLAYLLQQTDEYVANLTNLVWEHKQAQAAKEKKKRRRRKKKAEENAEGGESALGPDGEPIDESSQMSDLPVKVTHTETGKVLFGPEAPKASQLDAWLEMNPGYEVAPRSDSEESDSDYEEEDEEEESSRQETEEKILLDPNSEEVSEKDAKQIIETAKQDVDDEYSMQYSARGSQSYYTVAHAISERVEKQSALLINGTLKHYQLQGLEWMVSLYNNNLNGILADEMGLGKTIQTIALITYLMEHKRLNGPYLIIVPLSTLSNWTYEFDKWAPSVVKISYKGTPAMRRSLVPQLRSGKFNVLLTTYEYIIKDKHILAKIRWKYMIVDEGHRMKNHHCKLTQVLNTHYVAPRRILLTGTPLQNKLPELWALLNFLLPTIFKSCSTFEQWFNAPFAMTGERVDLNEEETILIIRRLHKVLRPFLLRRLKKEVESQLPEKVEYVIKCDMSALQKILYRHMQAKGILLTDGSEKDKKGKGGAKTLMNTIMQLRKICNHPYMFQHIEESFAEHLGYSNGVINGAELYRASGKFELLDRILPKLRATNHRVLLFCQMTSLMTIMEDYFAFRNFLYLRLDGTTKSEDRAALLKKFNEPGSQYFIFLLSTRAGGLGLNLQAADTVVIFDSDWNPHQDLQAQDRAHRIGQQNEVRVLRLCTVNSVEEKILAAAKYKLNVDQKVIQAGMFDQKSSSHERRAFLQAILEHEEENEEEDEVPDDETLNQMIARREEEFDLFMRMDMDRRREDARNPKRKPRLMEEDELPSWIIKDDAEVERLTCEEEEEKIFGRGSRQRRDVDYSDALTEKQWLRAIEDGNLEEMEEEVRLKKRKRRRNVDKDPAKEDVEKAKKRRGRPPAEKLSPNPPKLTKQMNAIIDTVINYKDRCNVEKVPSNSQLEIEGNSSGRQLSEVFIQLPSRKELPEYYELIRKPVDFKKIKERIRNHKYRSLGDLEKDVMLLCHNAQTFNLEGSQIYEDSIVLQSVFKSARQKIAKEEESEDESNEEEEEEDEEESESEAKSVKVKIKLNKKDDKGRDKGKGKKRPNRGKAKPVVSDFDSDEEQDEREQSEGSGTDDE

Turning to `Cc1ncsc1-c1ccc([C@H](C)NC(=O)[C@@H]2C[C@@H](O)CN2C(=O)[C@@H](c2cc(OCCN3CCC(OC4CN(c5cc(N6C7CCC6CN(c6cc(-c8ccccc8O)nnc6N)C7)ccn5)C4)CC3)no2)C(C)C)cc1` [compound 355, (2S,4R)-1-((2R)-2-(3-(2-(4-((1-(4-(3-(3-amino-6-(2-hydroxyphenyl)pyridazin-4-yl)-3,8-diazabicyclo[3.2.1]octan-8-yl)pyridin-2-yl)azetidin-3-yl)oxy)piperidin-1-yl)ethoxy)isoxazol-5-yl)-3-methylbutanoyl)-4-hydroxy-N-((S)-1-(4-(4-methylthiazol-5-yl)phenyl)ethyl)pyrrolidine-2-carboxamide], under setting [1], the Dmax was over 75%. For the same compound, under setting [2], the DC50 was under 2.5 nM. For `Cc1ncsc1-c1ccc([C@H](C)NC(=O)[C@@H]2C[C@@H](O)CN2C(=O)[C@@H](c2cc(OCCN(C(C)C)[C@H]3CC[C@H](O[C@H]4C[C@H](Oc5cc(N6C7CCC6CN(c6cc(-c8ccccc8O)nnc6N)C7)ccn5)C4)CC3)no2)C(C)C)cn1` [compound 505, (2S,4R)-1-((2R)-2-(3-(2-(((1R,4R)-4-((1r,3R)-3-((4-(3-(3-amino-6-(2-hydroxyphenyl)pyridazin-4-yl)-3,8-diazabicyclo[3.2.1]octan-8-yl)pyridin-2-yl)oxy)cyclobutoxy)cyclohexyl)(isopropyl)amin 0)ethoxy)isoxazol-5-yl)-3-methylbutanoyl)-4-hydroxy-N-((S)-1-(6-(4-methylthiazol-5-yl)pyridin-3-yl)ethyl)pyrrolidine-2-carboxamide], where the note is “BRM degradation, read-out: BRM DC50”, the DC50 lay in the range of 2.5 to 10 nM. Moreover, under setting [1], the Dmax was over 75%. As to `Cc1ncsc1-c1ccc([C@H](C)NC(=O)[C@@H]2C[C@@H](O)CN2C(=O)[C@@H](c2cc(OCCN3CCN(CCOc4cc(N5C6CCC5CN(c5cc(-c7ccccc7O)nnc5N)C6)ccn4)C[C@H]3C)no2)C(C)C)cc1` [compound 142, (2S,4R)-1-((2R)-2-(3-(2-((2R)-4-(2-((4-(3-(3-amino-6-(2-hydroxyphenyl)pyridazin-4-yl)-3,8-diazabicyclo[3.2.1]octan-8-yl)pyridin-2-yl)oxy)ethyl)-2-methylpiperazin-1-yl)ethoxy)isoxazol-5-yl)-3-methylbutanoyl)-4-hydroxy-N-((S)-1-(4-(4-methylthiazol-5-yl)phenyl)ethyl)pyrrolidine-2-carboxamide], the DC50 under setting [3] was under 2.5 nM. Moreover, the Dmax under setting [4] was over 75%. For the compound `Cc1ncsc1-c1ccc([C@H](C)NC(=O)[C@@H]2C[C@@H](O)CN2C(=O)[C@H](c2cc(N3CCN(CCN4CCC(O[C@H]5C[C@H](Oc6cc(N7C8CCC7CN(c7cc(-c9ccccc9O)nnc7N)C8)ccn6)C5)CC4)CC3)no2)C(C)C)cn1` [compound 401, (2S,4R)-1-((2S)-2-(3-(4-(2-(4-((1r,3r)-3-((4-(3-(3-amino-6-(2-hydroxyphenyl)pyridazin-4-yl)-3,8-diazabicyclo[3.2.1]octan-8-yl)pyridin-2-yl)oxy)cyclobutoxy)piperidin-1-yl)ethyl)piperazin-1-yl)isoxazol-5-yl)-3-methylbutanoyl)-4-hydroxy-N-((S)-1-(6-(4-methylthiazol-5-yl)pyridin-3-yl)ethyl)pyrrolidine-2-carboxamide], the DC50 under setting [5] is over 30 nM. With `Cc1ncsc1-c1ccc([C@H](C)NC(=O)[C@@H]2C[C@@H](O)CN2C(=O)[C@H](c2cc(OCCOCCOc3cc(N4C5CCC4CN(c4cc(-c6ccccc6O)nnc4N)C5)ccn3)no2)C(C)C)cc1` [compound 356, (2S,4R)-1-((2S)-2-(3-(2-(2-((4-(3-(3-amino-6-(2-hydroxyphenyl)pyridazin-4-yl)-3,8-diazabicyclo[3.2.1]octan-8-yl)pyridin-2-yl)oxy)ethoxy)ethoxy)isoxazol-5-yl)-3-methylbutanoyl)-4-hydroxy-N-((S)-1-(4-(4-methylthiazol-5-yl)phenyl)ethyl)pyrrolidine-2-carboxamide], the DC50 under setting [2] is over 30 nM. `Cc1ncsc1-c1ccc([C@H](C)NC(=O)[C@@H]2C[C@@H](O)CN2C(=O)[C@H](c2onc(OCCN3CCN(CCOc4cc(N5C6CCC5CN(c5cc(-c7ccccc7O)nnc5N)C6)ccn4)CC3)c2Cl)C(C)C)cc1` [compound 54, (2S,4R)-1-((2S)-2-(3-(2-(4-(2-((4-(3-(3-amino-6-(2-hydroxyphenyl)pyridazin-4-yl)-3,8-diazabicyclo[3.2.1]octan-8-yl)pyridin-2-yl)oxy)ethyl)piperazin-1-yl)ethoxy)-4-chloroisoxazol-5-yl)-3-methylbutanoyl)-4-hydroxy-N-((S)-1-(4-(4-methylthiazol-5-yl)phenyl)ethyl)pyrrolidine-2-carboxamide]: the DC50 under setting [3] was over 30 nM. Further, the Dmax under setting [4] is over 75%. The matching figures for `Cc1ncsc1-c1ccc(C2(NC(=O)[C@@H]3C[C@@H](O)CN3C(=O)[C@@H](c3cc(OCCN4CCN(CCOc5cc(N6C7CCC6CN(c6cc(-c8ccccc8O)nnc6N)C7)ccn5)CC4)no3)C(C)C)CN(C)C2)cc1` [compound 126, (2S,4R)-1-((2R)-2-(3-(2-(4-(2-((4-(3-(3-amino-6-(2-hydroxyphenyl)pyridazin-4-yl)-3,8-diazabicyclo[3.2.1]octan-8-yl)pyridin-2-yl)oxy)ethyl)piperazin-1-yl)ethoxy)isoxazol-5-yl)-3-methylbutanoyl)-4-hydroxy-N-(1-methyl-3-(4-(4-methylthiazol-5-yl)phenyl)azetidin-3-yl)pyrrolidine-2-carboxamide]: 2.5 to 10 nM and over 75%.

`COCCOCCOCCOCCOCCOCCOCCOCCOCCOCCOCCOCCOCCOCCOCCOCCOCCOCCOCCOCCOCCOCCOC(=O)CCC(=O)O[C@@H]1C[C@@H](C(=O)N[C@@H](C)c2ccc(-c3scnc3C)cc2)N(C(=O)[C@@H](c2cc(OCCN3CCC(O[C@H]4C[C@H](Oc5cc(N6C7CCC6CN(c6cc(-c8ccccc8O)nnc6N)C7)ccn5)C4)CC3)no2)C(C)C)C1` [compound 460, (3R,5S)-1-((2R)-2-(3-(2-(4-((1r,3R)-3-((4-(3-(3-amino-6-(2-hydroxyphenyl)pyridazin-4-yl)-3,8-diazabicyclo[3.2.1]octan-8-yl)pyridin-2-yl)oxy)cyclobutoxy)piperidin-1-yl)ethoxy)isoxazol-5-yl)-3-methylbutanoyl)-5-(((S)-1-(4-(4-methylthiazol-5-yl)phenyl)ethyl)carbamoyl) pyrrolidin-3-yl (2,5,8,11,14,17,20,23,26,29,32,3 5,38,41,44,47,50,53,56,59,62,65-docosaoxaheptahexacontan-67-yl) succinate]: the Dmax under setting [1] is over 75%. Besides, under setting [2], the DC50 is under 2.5 nM. For the compound `Cc1ncsc1-c1cnc([C@@H](C)NC(=O)[C@@H]2C[C@@H](O)CN2C(=O)[C@@H](c2cc(OCCN3CCC(O[C@H]4C[C@H](Oc5cc(N6C7CCC6CN(c6cc(-c8ccccc8O)nnc6N)C7)ccn5)C4)CC3)no2)C(C)C)cn1` [compound 441, (2S,4R)-1-((2R)-2-(3-(2-(4-((1r,3R)-3-((4-(3-(3-amino-6-(2-hydroxyphenyl)pyridazin-4-yl)-3,8-diazabicyclo[3.2.1]octan-8-yl)pyridin-2-yl)oxy)cyclobutoxy)piperidin-1-yl)ethoxy)isoxazol-5-yl)-3-methylbutanoyl)-4-hydroxy-N-((R)-1-(5-(4-methylthiazol-5-yl)pyrazin-2-yl)ethyl)pyrrolidine-2-carboxamide], the Dmax under setting [1] was over 75%. Moreover, the DC50 under setting [5] was 2.5 to 10 nM. As for `CC(C)[C@@H](C(=O)N1C[C@H](O)C[C@H]1C(=O)N[C@@H](C)c1ccc(-c2scnc2N)cc1)c1cc(N2CCC(CN3CCC(O[C@H]4C[C@H](Oc5cc(N6C7CCC6CN(c6cc(-c8ccccc8O)nnc6N)C7)ccn5)C4)CC3)CC2)no1` [compound 630, (2S,4R)-1-((2R)-2-(3-(4-((4-((1r,3r)-3-((4-(3-(3-amino-6-(2-hydroxyphenyl)pyridazin-4-yl)-3,8-diazabicyclo[3.2.1]octan-8-yl)pyridin-2-yl)oxy)cyclobutoxy)piperidin-1-yl)methyl)piperidin-1-yl)isoxazol-5-yl)-3-methylbutanoyl)-N-((S)-1-(4-(4-aminothiazol-5-yl)phenyl)ethyl)-4-hydroxypyrrolidine-2-carboxamide], the DC50 under setting [3] was under 2.5 nM. Besides, the Dmax (BRM degradation, SW1573 cells, read-out: Dmax (% degraded)) was over 75%. `Cc1ncsc1-c1ccc([C@H](C)NC(=O)[C@@H]2C[C@@H](O)CN2C(=O)[C@H](c2cc(OCC[C@H]3CCN(C[C@H]4C[C@H](Oc5cc(N6C7CCC6CN(c6cc(-c8ccccc8O)nnc6N)C7)ccn5)C4)C[C@H]3C)no2)C(C)C)cc1` (racemic) [compound 565, (2S,4R)-1-((2S)-2-(3-(2-((3S,4R)-1-(((1r,3S)-3-((4-(3-(3-amino-6-(2-hydroxyphenyl)pyridazin-4-yl)-3,8-diazabicyclo[3.2.1]octan-8-yl)pyridin-2-yl)oxy)cyclobutyl)methyl)-3-methylpiperidin-4-yl)ethoxy)isoxazol-5-yl)-3-methylbutanoyl)-4-hydroxy-N-((S)-1-(4-(4-methylthiazol-5-yl)phenyl)ethyl) pyrrolidine-2-carboxamide]: the DC50 under setting [6] is over 30 nM.

In the case of `Cc1nccn1-c1ccc([C@H](C)NC(=O)[C@@H]2C[C@@H](O)CN2C(=O)[C@@H](c2cc(N3CCN(C[C@H]4C[C@H](Oc5cc(N6C7CCC6CN(c6cc(-c8ccccc8O)nnc6N)C7)ccn5)C4)CC3)no2)C(C)C)cc1` [compound 576, (2S,4R)-1-((2R)-2-(3-(4-(((1r,3R)-3-((4-(3-(3-amino-6-(2-hydroxyphenyl)pyridazin-4-yl)-3,8-diazabicyclo[3.2.1]octan-8-yl)pyridin-2-yl)oxy)cyclobutyl)methyl)piperazin-1-yl)isoxazol-5-yl)-3-methylbutanoyl)-4-hydroxy-N-((S)-1-(4-(2-methyl-1H-imidazol-1-yl)phenyl)ethyl)pyrrolidine-2-carboxamide], the Dmax (BRM degradation, SW1573 cells, Table 2D, read-out: **Dmax (%) (% degraded)) is over 75%. In addition, under setting [6], the DC50 is under 2.5 nM.
